Assay results from patent US8853203B2, “Diazepinone derivatives” (Novartis AG, priority 2012, dated 2014).

Experiments:
[1] = molecular target: human mGluR1 (Homo sapiens (Human), UniProt Q13255); experiment: mGluR1 antagonism, L-glutamate induced intracellular calcium increase (FLIPR) in CHO cells stably expressing human mGluR1; format: cell-based; conditions: L-glutamate induced intracellular calcium, CHO cells expressing human mGluR1, FLIPR
[2] = molecular target: human mGluR5a receptors (Homo sapiens (Human), UniProt P41594); experiment: inhibition of glutamate-induced elevation of intracellular calcium in L(tk-) cells expressing human mGluR5a; format: cell-based; conditions: for IC50: glutamate-induced intracellular calcium elevation, L(tk-) cells expressing human mGluR5a, read-out: mGluR5 IC50
Outline: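 Compounds tested for inhibition of the glutamate-induced rise in intracellular calcium concentration in L(tk-) cells stably expressing human mGluR5a.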

Sequence of human mGluR1 (Q13255 19-1194): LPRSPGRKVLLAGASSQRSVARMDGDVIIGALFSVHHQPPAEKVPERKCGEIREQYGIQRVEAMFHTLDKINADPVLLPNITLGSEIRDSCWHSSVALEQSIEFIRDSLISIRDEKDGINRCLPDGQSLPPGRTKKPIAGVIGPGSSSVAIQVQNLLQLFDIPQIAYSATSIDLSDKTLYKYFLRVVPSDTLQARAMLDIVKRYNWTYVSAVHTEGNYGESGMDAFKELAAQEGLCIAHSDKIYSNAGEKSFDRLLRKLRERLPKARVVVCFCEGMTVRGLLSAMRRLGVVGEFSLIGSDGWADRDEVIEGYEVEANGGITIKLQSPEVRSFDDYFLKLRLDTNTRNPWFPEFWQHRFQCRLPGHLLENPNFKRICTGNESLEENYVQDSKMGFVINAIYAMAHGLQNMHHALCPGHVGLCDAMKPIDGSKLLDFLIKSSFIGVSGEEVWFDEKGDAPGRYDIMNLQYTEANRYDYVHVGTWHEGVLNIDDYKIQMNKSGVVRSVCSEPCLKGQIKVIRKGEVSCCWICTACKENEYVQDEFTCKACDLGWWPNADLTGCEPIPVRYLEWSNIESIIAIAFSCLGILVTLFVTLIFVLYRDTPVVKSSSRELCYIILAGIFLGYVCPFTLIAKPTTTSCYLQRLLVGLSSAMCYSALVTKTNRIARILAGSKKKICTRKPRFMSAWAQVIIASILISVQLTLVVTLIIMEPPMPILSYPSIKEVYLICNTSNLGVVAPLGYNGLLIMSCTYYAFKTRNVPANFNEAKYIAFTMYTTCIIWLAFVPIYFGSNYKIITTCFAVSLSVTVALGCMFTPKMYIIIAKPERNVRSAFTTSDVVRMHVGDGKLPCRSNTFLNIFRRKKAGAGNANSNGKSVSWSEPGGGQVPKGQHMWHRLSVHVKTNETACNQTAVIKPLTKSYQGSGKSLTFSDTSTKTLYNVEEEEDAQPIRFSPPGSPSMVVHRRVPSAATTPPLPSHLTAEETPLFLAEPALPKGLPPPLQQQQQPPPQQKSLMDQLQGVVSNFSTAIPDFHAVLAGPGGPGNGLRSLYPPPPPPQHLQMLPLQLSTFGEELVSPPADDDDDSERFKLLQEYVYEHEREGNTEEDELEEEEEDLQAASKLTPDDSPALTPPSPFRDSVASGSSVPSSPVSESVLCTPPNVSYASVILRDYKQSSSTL
Sequence of human mGluR5a receptors (P41594 other isoform, or with tags, fused parts or gaps): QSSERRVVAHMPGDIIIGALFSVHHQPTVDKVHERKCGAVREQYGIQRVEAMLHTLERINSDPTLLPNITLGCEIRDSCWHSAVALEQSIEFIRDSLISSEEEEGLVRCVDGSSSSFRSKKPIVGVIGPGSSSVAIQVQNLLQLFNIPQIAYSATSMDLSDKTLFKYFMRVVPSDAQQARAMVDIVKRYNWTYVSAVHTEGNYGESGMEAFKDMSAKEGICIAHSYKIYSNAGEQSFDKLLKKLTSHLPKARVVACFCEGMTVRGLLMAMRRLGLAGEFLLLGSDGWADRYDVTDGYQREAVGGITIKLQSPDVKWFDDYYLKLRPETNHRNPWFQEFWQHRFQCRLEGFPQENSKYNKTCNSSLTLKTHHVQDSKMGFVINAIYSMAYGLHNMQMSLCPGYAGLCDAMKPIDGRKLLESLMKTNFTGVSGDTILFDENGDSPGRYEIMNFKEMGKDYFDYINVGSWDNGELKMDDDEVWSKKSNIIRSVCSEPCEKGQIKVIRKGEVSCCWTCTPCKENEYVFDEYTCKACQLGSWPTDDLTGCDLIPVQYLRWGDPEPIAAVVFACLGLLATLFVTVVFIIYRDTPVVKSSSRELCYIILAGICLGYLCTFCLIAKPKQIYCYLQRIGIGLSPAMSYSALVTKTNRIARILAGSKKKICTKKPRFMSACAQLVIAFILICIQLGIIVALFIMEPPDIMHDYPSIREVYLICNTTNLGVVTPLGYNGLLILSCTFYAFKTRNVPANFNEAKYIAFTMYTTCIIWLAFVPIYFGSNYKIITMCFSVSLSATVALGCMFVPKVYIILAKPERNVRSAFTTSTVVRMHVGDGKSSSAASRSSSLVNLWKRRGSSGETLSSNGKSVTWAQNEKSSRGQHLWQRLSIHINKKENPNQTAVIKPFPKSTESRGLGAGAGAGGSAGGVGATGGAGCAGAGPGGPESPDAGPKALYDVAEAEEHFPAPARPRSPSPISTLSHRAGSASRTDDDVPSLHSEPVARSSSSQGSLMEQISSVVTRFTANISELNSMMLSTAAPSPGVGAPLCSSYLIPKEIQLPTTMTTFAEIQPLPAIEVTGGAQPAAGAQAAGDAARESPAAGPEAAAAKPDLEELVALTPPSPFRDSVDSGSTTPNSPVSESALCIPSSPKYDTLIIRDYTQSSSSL

SMILES	IC50 [1]	IC50 [2]	inhibition at 10 µM ([2]; LTK, read-out: mGluR5 % inhibition at 10 μM)
COCc1cn(C2=NCC(=O)N3CCc4c(cc(F)cc4C4CC4)C3=C2)cn1 [Example 99k, 9-cyclopropyl-11-fluoro-2-(4-(methoxymethyl)-1H-imidazol-1-yl)-7,8-dihydro-[1,4]diazepino[7,1-a]isoquinolin-5(4H)-one]	561 nM	3 nM	–
O=C1CN=C(n2cnc(C3CC3)c2)C=C2c3cccc(-c4cncc(F)n4)c3CCN12 [Example 141, 2-(4-cyclopropyl-1H-imidazol-1-yl)-9-(6-fluoropyrazin-2-yl)-7,8-dihydro-[1,4]diazepino[7,1-a]isoquinolin-5(4H)-one]	402 nM	26 nM	–
CCc1cn(C2=NCC(=O)N3CCc4c(cccc4C4(F)CCC4)C3=C2)cn1 [Example 113, 2-(4-ethyl-1H-imidazol-1-yl)-9-(1-fluorocyclobutyl)-7,8-dihydro-[1,4]diazepino[7,1-a]isoquinolin-5(4H)-one]	2300 nM	120 nM	–
CC(C)n1cc(C2=NCC(=O)N3CCc4c(I)cccc4C3=C2)cn1 [Example 35, 9-iodo-2-(1-isopropyl-1H-pyrazol-4-yl)-7,8-dihydro-[1,4]diazepino[7,1-a]isoquinolin-5(4H)-one]	15 nM	14 nM	–
COc1cccc(C2=NCC(=O)N3CCc4c(Br)cccc4C3=C2)c1 [Example 20, 9-bromo-2-(3-methoxyphenyl)-7,8-dihydro-[1,4]diazepino[7,1-a]isoquinolin-5(4H)-one]	2800 nM	1200 nM	–
COc1cccc(C2=NCC(=O)N3CCc4c(ccc(Cl)c4OC)C3=C2)c1 [Example 13, 10-chloro-9-methoxy-2-(3-methoxyphenyl)-7,8-dihydro-[1,4]diazepino[7,1-a]isoquinolin-5(4H)-one]	530 nM	82 nM	–
Cc1cn(C2=NCC(=O)N3CCc4c(cccc4-c4cccnc4)C3=C2)cn1 [Example 79, 2-(4-methyl-1H-imidazol-1-yl)-9-(pyridin-3-yl)-7,8-dihydro-[1,4]diazepino[7,1-a]isoquinolin-5(4H)-one]	> 10000 nM	130 nM	–
N#Cc1cn(C2=NCC(=O)N3CCc4c(I)cccc4C3=C2)cn1 [Example 64, 1-(9-iodo-5-oxo-4,5,7,8-tetrahydro-[1,4]diazepino[7,1-a]isoquinolin-2-yl)-1H-imidazole-4-carbonitrile]	> 10000 nM	4300 nM	–
COCc1cn(C2=NCC(=O)N3CCc4c(ccc(F)c4C4CC4)C3=C2)cn1 [Example 96-2, 9-cyclopropyl-10-fluoro-2-(4-(methoxymethyl)-1H-imidazol-1-yl)-7,8-dihydro-[1,4]diazepino[7,1-a]isoquinolin-5(4H)-one]	289 nM	2 nM	–
CCc1cccc2c1CCN1C(=O)CN=C(c3cccc(OC)c3)C=C21 [Example 37, 9-ethyl-2-(3-methoxyphenyl)-7,8-dihydro-[1,4]diazepino[7,1-a]isoquinolin-5(4H)-one]	2200 nM	77 nM	–
COc1ccc(C)c(C2=NCC(=O)N3CCc4c(OC)cccc4C3=C2)c1 [Example 18, 9-methoxy-2-(5-methoxy-2-methylphenyl)-7,8-dihydro-[1,4]diazepino[7,1-a]isoquinolin-5(4H)-one]	> 10000 nM	4100 nM	–
CO[C@H](C)c1cn(C2=NCC(=O)N3CCc4c(cccc4C4CC4)C3=C2)cn1 [Example 123, (R)-9-cyclopropyl-2-(4-(1-methoxyethyl)-1H-imidazol-1-yl)-7,8-dihydro-[1,4]diazepino[7,1-a]isoquinolin-5(4H)-one]	7000 nM	3 nM	–
COc1cc(C2=NCC(=O)N3CCc4c(cccc4-c4cnccn4)C3=C2)ccn1 [Example 52, 2-(2-methoxypyridin-4-yl)-9-(pyrazin-2-yl)-7,8-dihydro-[1,4]diazepino[7,1-a]isoquinolin-5(4H)-one]	> 10000 nM	66 nM	–
O=C1CN=C(n2cnc(C3CC3)n2)C=C2c3cccc(C4CC4)c3CCN12 [Example 123c, 9-cyclopropyl-2-(3-cyclopropyl-1H-1,2,4-triazol-1-yl)-7,8-dihydro-[1,4]diazepino[7,1-a]isoquinolin-5(4H)-one]	226 nM	8 nM	–
COc1cccc(C2=NCC(=O)N3CCc4c(Cl)cccc4C3=C2)c1 [Example 3, 9-chloro-2-(3-methoxyphenyl)-7,8-dihydro-[1,4]diazepino[7,1-a]isoquinolin-5(4H)-one]	585 nM	220 nM	–
N#Cc1cccc2c1CCN1C(=O)CN=C(c3cccs3)C=C21 [Example 39, 5-oxo-2-(thiophen-2-yl)-4,5,7,8-tetrahydro-[1,4]diazepino[7,1-a]isoquinoline-9-carbonitrile]	1600 nM	610 nM	–
Cc1cn(C2=NCC(=O)N3CCc4c(Cl)cccc4C3=C2)cn1 [Example 62, 9-chloro-2-(4-methyl-1H-imidazol-1-yl)-7,8-dihydro-[1,4]diazepino[7,1-a]isoquinolin-5(4H)-one]	1600 nM	595 nM	–

Continued, values first:

IC50 [1]	IC50 [2]	inhibition at 10 µM ([2]; LTK, read-out: mGluR5 % inhibition at 10 μM)	SMILES
> 2000 nM	12 nM	–	O=C1CN=C(n2cnc(-c3cnco3)c2)C=C2c3cccc(C4CC4)c3CCN12 [Example 123a, 9-cyclopropyl-2-(4-(oxazol-5-yl)-1H-imidazol-1-yl)-7,8-dihydro-[1,4]diazepino[7,1-a]isoquinolin-5(4H)-one]
12000 nM	102 nM	–	O=C1CN=C(n2cnc(C3CC3)c2)C=C2c3cccc(-c4cnc(F)nc4)c3CCN12 [Example 99f, 2-(4-cyclopropyl-1H-imidazol-1-yl)-9-(2-fluoropyrimidin-5-yl)-7,8-dihydro-[1,4]diazepino[7,1-a]isoquinolin-5(4H)-one]
672 nM	2 nM	–	O=C1CN=C(n2cnc(CF)c2)C=C2c3cccc(C4CC4)c3CCN12 [Example 99m, 9-cyclopropyl-2-(4-(fluoromethyl)-1H-imidazol-1-yl)-7,8-dihydro-[1,4]diazepino[7,1-a]isoquinolin-5(4H)-one]
> 2000 nM	273 nM	–	COCc1cn(C2=NCC(=O)N3CCc4c(OC(C)C)cccc4C3=C2)cn1 [Example 142, 9-isopropoxy-2-(4-(methoxymethyl)-1H-imidazol-1-yl)-7,8-dihydro-[1,4]diazepino[7,1-a]isoquinolin-5(4H)-one]
> 10000 nM	49 nM	–	O=C1CN=C(n2cnc(C3CCC3)c2)C=C2c3cccc(N4CCOCC4)c3CCN12 [Example 70, 2-(4-cyclobutyl-1H-imidazol-1-yl)-9-morpholino-7,8-dihydro-[1,4]diazepino[7,1-a]isoquinolin-5(4H)-one]
1200 nM	22 nM	–	CCc1cn(C2=NCC(=O)N3CCc4c(cccc4-c4ncco4)C3=C2)cn1 [Example 74, 2-(4-ethyl-1H-imidazol-1-yl)-9-(oxazol-2-yl)-7,8-dihydro-[1,4]diazepino[7,1-a]isoquinolin-5(4H)-one]
> 2000 nM	83 nM	–	O=C1CN=C(n2cnc(C3CC3)c2)C=C2c3cccc(-c4ccc(F)nc4F)c3CCN12 [Example 99, 2-(4-cyclopropyl-1H-imidazol-1-yl)-9-(2,6-difluoropyridin-3-yl)-7,8-dihydro-[1,4]diazepino[7,1-a]isoquinolin-5(4H)-one]
8900 nM	–	26%	COc1cccc2c1CCN1C(=O)CN=C(c3cccc(O)n3)C=C21 [Example 58, 9-methoxy-2-(6-oxo-1,6-dihydropyridin-2-yl)-7,8-dihydro-[1,4]diazepino[7,1-a]isoquinolin-5(4H)-one]
4800 nM	80 nM	–	O=C1CN=C(c2ccco2)C=C2c3cccc(-c4ccncc4)c3CCN12 [Example 28, 2-(furan-2-yl)-9-(pyridin-4-yl)-7,8-dihydro-[1,4]diazepino[7,1-a]isoquinolin-5(4H)-one]
> 10000 nM	205 nM	–	O=C1CN=C(n2cnc(Cl)c2)C=C2c3cccc(-c4cncc(F)c4)c3CCN12 [Example 83, 2-(4-chloro-1H-imidazol-1-yl)-9-(5-fluoropyridin-3-yl)-7,8-dihydro-[1,4]diazepino[7,1-a]isoquinolin-5(4H)-one]
940 nM	345 nM	–	CCc1cc(C2=NCC(=O)N3CCc4c(OC)cccc4C3=C2)ccn1 [Example 10, 2-(2-ethylpyridin-4-yl)-9-methoxy-7,8-dihydro-[1,4]diazepino[7,1-a]isoquinolin-5(4H)-one]
> 10000 nM	235 nM	–	COc1cccc(C2=NCC(=O)N3CCc4c(cccc4C(C)(C)O)C3=C2)c1 [Example 26, 9-(2-hydroxypropan-2-yl)-2-(3-methoxyphenyl)-7,8-dihydro-[1,4]diazepino[7,1-a]isoquinolin-5(4H)-one]
3050 nM	75 nM	–	COc1cc(C2=NCC(=O)N3CCc4c(Cl)cccc4C3=C2)ccn1 [Example 6, 9-chloro-2-(2-methoxypyridin-4-yl)-7,8-dihydro-[1,4]diazepino[7,1-a]isoquinolin-5(4H)-one]
41 nM	1 nM	–	O=C1CN=C(n2cnc(CCO)c2)C=C2c3cccc(C4CC4)c3CCN12 [Example 128, 9-cyclopropyl-2-(4-(2-hydroxyethyl)-1H-imidazol-1-yl)-7,8-dihydro-[1,4]diazepino[7,1-a]isoquinolin-5(4H)-one]
> 10000 nM	271 nM	–	O=C1CN=C(n2cnc(C3CC3)n2)C=C2c3cccc(-c4ncccc4F)c3CCN12 [Example 88c, 2-(3-cyclopropyl-1H-1,2,4-triazol-1-yl)-9-(3-fluoropyridin-2-yl)-7,8-dihydro-[1,4]diazepino[7,1-a]isoquinolin-5(4H)-one]
220 nM	9 nM	–	COCc1cn(C2=NCC(=O)N3CCc4c(cccc4C4CCC4)C3=C2)cn1 [Example 91, 9-cyclobutyl-2-(4-(methoxymethyl)-1H-imidazol-1-yl)-7,8-dihydro-[1,4]diazepino[7,1-a]isoquinolin-5(4H)-one]
